This note sets out measurements from patent publication US7288567B2, “Inhibitors of histone deacetylase” (Methylgene Inc., priority 2000, dated 2007).

SMILES strings stand for the structures. Some results are limits rather than exact numbers.

By IC50 is commonly meant the concentration at which inhibition is half-maximal.

Assay [1] deals with T1, recombinant human HDAC-1 enzyme (rHDAC-1) (Homo sapiens, UniProt Q13547).
T1 construct: made in house; host or cells: Baculovirus insect cell expression system
The assay can be described thus: Histone deacetylase inhibition, recombinant human HDAC-1. In kind it is biochemical. The settings on record: cloned recombinant human HDAC-1, Baculovirus insect cell expression; read-out: rHDAC-1 IC50. How it is done:
(§1) The reaction was stopped by adding acetic acid (0.04 M, final concentration) and HCl (250 mM, final concentration). The mixture was extracted with ethyl acetate and the released [^3H]-acetic acid was quantified by scintillation counting. For inhibition studies, the enzyme was preincubated with compounds at 4° C. for 30 minutes prior to initiation of the enzymatic assay. IC50 values for HDAC enzyme inhibitors were determined by performing dose response curves with individual compounds and determining the concentration of inhibitor producing fifty percent of the maximal inhibition.

Assay [2] deals with histone deacetylase enzyme in nuclear extracts from H446 cells (pooled HDACs). The assay can be described thus: Histone deacetylase inhibition, H446 nuclear extracts (pooled HDACs). In kind it is biochemical, human. The settings on record: for IC50: H446 nuclear extract, [3H]-acetylated histone substrate; for pooled HDACs percent inhibition: percent inhibition at 20 μM (footnote). The method, then:
HDAC inhibitors were screened against histone deacetylase enzyme in nuclear extracts prepared from the human small cell lung cancer cell line H446 (ATTC HTB-171) and against a cloned recombinant human HDAC-1 enzyme expressed and purified from a Baculovirus insect cell expression system.
as §1, with “For deacetylase assays, 20,000 cpm of the [^3H]-metabolically labeled acetylated histone substrate (M. Yoshida et al., J. Biol. Chem. 265(28): 17174-17179 (1990)) was incubated with 30 μg of H446 nuclear extract or an equivalent amount of the cloned recombinant hHDAC-1 for 10 minutes at 37° C. The reaction” for “The reaction”

T1 sequence (Q13547 whole entry): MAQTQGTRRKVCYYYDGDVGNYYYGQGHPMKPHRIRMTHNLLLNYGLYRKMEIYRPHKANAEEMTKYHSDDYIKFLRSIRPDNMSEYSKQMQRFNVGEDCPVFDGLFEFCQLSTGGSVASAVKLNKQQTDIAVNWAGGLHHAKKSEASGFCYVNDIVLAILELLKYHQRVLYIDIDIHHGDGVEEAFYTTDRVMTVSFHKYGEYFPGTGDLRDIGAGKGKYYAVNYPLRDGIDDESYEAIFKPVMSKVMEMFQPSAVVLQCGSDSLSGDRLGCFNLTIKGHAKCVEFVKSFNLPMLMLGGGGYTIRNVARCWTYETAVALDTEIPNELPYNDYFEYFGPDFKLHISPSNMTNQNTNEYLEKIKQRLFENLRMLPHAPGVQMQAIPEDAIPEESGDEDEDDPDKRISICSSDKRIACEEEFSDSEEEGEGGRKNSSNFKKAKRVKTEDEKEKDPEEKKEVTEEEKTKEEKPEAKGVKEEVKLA

Take `COc1ccc(C(C/C=C/C=C/C(=O)NO)OC)cc1` (stereo not shown) [Compound 6, N-Hydroxy-7-methoxy-7-(4-methoxyphenyl)-2,4-heptadienamide]: the IC50 in assay [1] was 250 nM; in assay [2], 3000 nM.

Consider `CC(CCCCCC(=O)c1ccc2ccccc2c1)C(=O)NO` (stereo not shown) [Compound 175, N-Hydroxy-2-methyl-7-(2-naphthoyl)heptanamide], for which the concentration for half-maximal inhibition (IC50) in assay [2] worked out at 2500 nM.

Turning to `O=C(CCCCCNS(=O)(=O)c1ccccc1)NO` [Compound 47, N-Hydroxy-6-(benzenesulfonylamino)hexanamide], the IC50 in assay [1] turned out to be 500 nM; in assay [2], 4500 nM.

Compound `CC(/C=C/C(=O)NO)=C\C(C)Cc1ccc(N(C)C)cc1` (stereo not shown) [Compound 38, N-Hydroxy-4,6-dimethyl-7-[4-(N,N-dimethylamino)phenyl]-2,4-heptadienamide] had an IC50 in assay [2] of more than 20000 nM.

`Nc1ccccc1CNC(=O)CCCCCCC(=O)c1ccc(-c2ccccc2)cc1` [Compound 75, N-(2-Aminobenzyl)-7-[(4-biphenyl)carbonyl]heptanamide]: the IC50 in assay [1] was found to be 8400 nM. Besides, the “pooled HDACs percent inhibition” value in assay [2] was 0%.

As for `O=C(CCCCCCC(=O)c1ccccc1)CSCc1ccccc1` [Compound 159c, 1-Benzylthio-2,9-dioxo-9-phenyl-nonane], the IC50 in assay [1] turned out to be 5000 nM. Moreover, the “pooled HDACs percent inhibition @ 5 μM” value in assay [2] (@ 5 μM) is recorded as 0%@ 5 μM.

Turning to `O=C(CCCCCCC(=O)c1ccccc1)CSc1ccccc1` [Compound 159d, 1-Phenylthio-2,9-dioxo-9-phenyl-nonane], the results for the IC50 in assay [1] and in assay [2] were 5000 nM and 50000 nM, respectively.

`O=C(CCCCCn1cnc2ccccc2c1=O)NO` [Compound 238a, N-Hydroxy-6-[3-(4-Oxo-4H-quinazolinyl)]hexanamide]: the IC50 in assay [1] worked out at 50 nM. Besides, the “pooled HDACs percent inhibition @ 1 μM” value in assay [2] stood at 0%@ 1 μM.

On to `O=C(CCCCCCC(=O)c1ccc(Nc2ccccn2)cc1)NO` [Compound 138d, N-Hydroxy-7-[4-(N-2-aminopyridyl)benzoyl]heptanamide], for which the IC50 in assay [1] was 4 nM; in assay [2], 20 nM.

Turning to `CC(CCC(=O)NO)CC(C)C(=O)c1ccc(N(C)C)cc1` (stereo not shown) [Compound 62, N-Hydroxy-4-Methyl-6-[4-(N,N-dimethylamino)benzoyl]heptanamide], half-maximal inhibition in assay [2] (IC50) was put at 1100 nM.

Take `O=C(CS)CCCCCCC(=O)c1cc2ccccc2s1` [Compound 163, 1-Mercapto-2,9-dioxo-9-(2-benzo[b]thiophene)-nonane]: the figures for the 50% inhibitory concentration (IC50) in assay [1] and in assay [2] were 10 nM and 40 nM, respectively.

On to `O=C(CCCCCC(=O)c1cc2ccccc2s1)NO` [Compound 113, N-Hydroxy-6-[(2-benzo[b]thiophene)carbonyl]hexanamide], for which the IC50 in assay [1] was 130 nM. Besides, in assay [2], the “pooled HDACs percent inhibition @ 1 μM” value is 33%@ 1 μM.

Regarding `CC(=O)SCC(=O)CCCCCCC(=O)c1ccccc1` [Compound 159a, 1-Acetylthio-2,9-dioxo-9-phenyl-nonane], the IC50 in assay [1] worked out at 100 nM; in assay [2], 50 nM.

For `COc1ccc(/C(CCCCCCC(=O)NO)=N/O)cc1` [Compound 96, N-Hydroxy-8-(E)-oximino-8-(4-methoxyphenyl)octanamide], the IC50 in assay [1] is 35 nM; in assay [2], 100 nM.

On to `O=C(CCCCCCC(=O)c1ccc2ccccc2c1)Nc1ccccc1O` [Compound 66, N-(2-Hydroxyphenyl)-7-(2-naphthoyl)heptanamide], for which the IC50 in assay [1] came to 2300 nM. Besides, the “pooled HDACs percent inhibition” value in assay [2] was determined as 0%.

As for `CN(c1ccccc1)c1ccc(C(=O)CCCCCCC(=O)NO)cc1` [Compound 138b, N-Hydroxy-7-[4-(N-methyl-N-phenyl)benzoyl]heptanamide], the IC50 was 8 nM in assay [1] and 49 nM in assay [2].

`O=C(CCCCCCC(=O)c1cc2ccccc2o1)NO` [Compound 52l, N-hydroxy-7-(2-benzofuran)carbonylheptanamide]: the IC50 came to 30 nM in assay [1] and 300 nM in assay [2].

`Nc1ccccc1NC(=O)CCCCCCC(=O)c1cccc2ccccc12` [Compound 53f, N-(2-Aminophenyl)-7-(1-naphthoyl)heptanamide]: the IC50 in assay [1] stood at 2000 nM. The “pooled HDACs percent inhibition” value in assay [2] amounted to 3%.

In the case of `O=C(CCCCCCC(=O)c1ccoc1)NO` [Compound 52j, N-hydroxy-7-(3-furanoyl)heptanamide], the half-maximal inhibitory concentration (IC50) is 450 nM in assay [1] and 3000 nM in assay [2].

On to `O=C(CCCCCCC(=O)c1cc2ccccc2s1)NO` [Compound 52m, N-hydroxy-7-(2-benzothiophene)carbonylheptanamide], for which the IC50 in assay [1] was 10 nM; in assay [2] it was 100 nM.

In the case of `COC(C/C=C/C=C/C(=O)NO)c1ccccc1` (stereo not shown) [Compound 12, N-Hydroxy-7-methoxy-7-phenyl-2,4-heptadienamide], the IC50 in assay [2] was 9400 nM.

As to `O=C(CCCCCCC(=O)c1ccc(Nc2nccs2)cc1)NO` [Compound 138e, N-Hydroxy-7-[4-(N-2-aminothiazolyl)benzoyl]heptanamide], the half-inhibitory concentration (IC50) came out at 4 nM in assay [1] and 20 nM in assay [2].

As for `Nc1ccccc1NC(=O)CCCCCN1C(=O)c2ccccc2C1=O` [Compound 243a, N-(2-Aminophenyl)-6-(N-phthaloyl)hexanamide], in assay [1], the IC50 was determined as 1600 nM. Besides, the “pooled HDACs percent inhibition” value in assay [2] amounted to 6%.

Consider `COc1ccc(C(OC)C(C)(C)/C=C/C=C/C(=O)NO)cc1` (stereo not shown) [Compound 26, N-Hydroxy-6,6-dimethyl-7-methoxy-7-(4-methoxyphenyl)-2,4-heptadienamide], for which the half-inhibitory concentration (IC50) in assay [1] was determined as 1000 nM; in assay [2], 5000 nM.

As to `Nc1ccccc1NC(=O)CCCCCn1nnc2ccccc2c1=O` [Compound 239b], in assay [1], the IC50 was found to be 8100 nM. In assay [2], the “pooled HDACs percent inhibition” value worked out at 14%.

`Nc1ccccc1NC(=O)CCCCCN1C(=O)c2cccc3cc(O)cc(c23)C1=O` [Compound 251a, N-(2-Aminophenyl)-6-[2-(5-hydroxy-1,3-dioxo-1H,3H-benzo[de]isoquinolinyl)]hexanamide]: in assay [2], the “pooled HDACs percent inhibition” value was found to be 0%.

Take `CC(=O)SCC(=O)CCCCCCC(=O)c1cc2ccccc2[nH]1` [Compound 167, 1-Acetylthio-2,9-dioxo-9-(2-indolyl)-nonane]: the IC50 stood at 400 nM in assay [1] and 300 nM in assay [2].

Take `O=C(CCCCCCC(=O)c1ccc(Br)cc1)NO` [Compound 52d, N-hydroxy-7-(4-bromobenzoyl)heptanamide]: the midpoint of inhibition in assay [2], the IC50, lay at 50 nM.

In the case of `COc1ccc(NC(=O)CCCCCCC(=O)c2ccc(-c3ccccc3)cc2)c(N)c1` [Compound 81, N-(4-(3-Amino)anisole)-7-[(4-biphenyl)carbonyl]heptanamide], the IC50 in assay [1] is 25000 nM. Moreover, in assay [2], the “pooled HDACs percent inhibition” value came to 27%.

As to `Nc1ccccc1NC(=O)CCCCCCC(=O)c1ccc(-c2cccnc2)cc1` [Compound 127, N-(2-Aminophenyl)-7-[4-(3-pyridyl)benzoyl]heptanamide], the IC50 in assay [1] came to 10300 nM. Moreover, the “pooled HDACs percent inhibition” value in assay [2] turned out to be 0%.

In assay [2], `O=C(CCCCCCC(=O)c1cccs1)NO` [Compound 52k, N-hydroxy-7-(2-thiophene)carbonylheptanamide] registered an IC50 of 900 nM.

Turning to `O=C(CCCCCCC(=O)c1ccc(N2CCCCC2)cc1)NO` [Compound 138h, N-Hydroxy-7-[4-(1-piperidinyl)benzoyl]heptanamide], the half-maximal inhibitory concentration (IC50) in assay [2] was 48 nM.

Regarding `O=C(CCCCCC/C(=N\O)c1ccc(-c2ccccc2)cc1)NO` [(E)-51h, N-Hydroxy-8-(E)-oximino-8-(4-biphenyl)octanamide], the “pooled HDACs percent inhibition” value in assay [2] is on record as 99%.

Turning to `O=C(CCCCCCC(=O)c1ccccn1)NO` [Compound 141a2, N-Hydroxy-7-[(2-pyridyl)carbonyl]heptanamide], the “pooled HDACs percent inhibition @ 1 μM” value in assay [2] stood at 12%@ 1 μM.

Compound `COc1ccc(C(OC)C(C)(C)/C=C/C=C/C(=O)Nc2ccccc2N)cc1` (stereo not shown) [Compound 27, N-(2-Aminophenyl)-6,6-dimethyl-7-methoxy-7-(4-methoxyphenyl)-2,4-heptadienamide] displayed an IC50 in assay [2] of more than 100000 nM.

In assay [2], `O=C(CCCCCC/C(=N\O)c1ccc2ccccc2c1)NO` [Compound 97, N-Hydroxy-8-(E)-oximino-8-(2-naphthyl)octanamide] came in with an IC50 of 30 nM.

In assay [2], `COC(c1ccc(N(C)C)cc1)C(C)/C=C(C)/C=C/C(=O)NO` (stereo not shown) [Compound 33, N-Hydroxy-4,6-dimethyl-7-methoxy-7-[4-(N,N-dimethylamino)phenyl]-2,4-heptadienamide] came in with an IC50 of more than 10000 nM.

With `Nc1ccccc1NC(=O)CCCCCn1cnc2ccccc2c1=O` [Compound 239a, N-(2-Aminophenyl)-6-[3-(4-oxo-4H-quinazolinyl)]hexanamide], the “pooled HDACs percent inhibition” value in assay [2] was 0%.

Take `O=C(CCCCCC/C(=N/O)c1ccc(-c2ccccc2)cc1)NO` [(Z)-51h, N-Hydroxy-8-(Z)-oximino-8-(4-biphenyl)octanamide]: the “pooled HDACs percent inhibition” value in assay [2] was found to be 75%.

On to `O=C(CCCCCCC(=O)c1ccc(NCc2cccnc2)cc1)NO` [Compound 138f, N-Hydroxy-7-[4(N-3-aminomethylpyridyl)benzoyl]heptanamide], for which, in assay [1], the IC50 turned out to be 20 nM.
